Experimental data: patent publication US12673944B2, “Compounds having inhibitory activity against glucosylceramide synthase or pharmaceutically acceptable salt thereof, processes for preparing the same, and pharmaceutical compositions comprising the same” (YUHAN CORPORATION, priority 2019, dated 2026)
Where two headings read alike, the source gives them in different places.

Legend:
[1] = molecular target: T1, glucosylceramide synthase (GCS) (Homo sapiens, UniProt Q16739); assay: GCS enzyme inhibition assay (A549 cell lysate, NBD C6-ceramide, HPLC fluorescence); assay type: biochemical; conditions: inhibitory activity against GCS, 37° C., 90 minutes
T1 construct: The obtained supernatant was used; host or cells: A549 cells (lysate supernatant after sonication)
T1 sequence (Q16739 1-394): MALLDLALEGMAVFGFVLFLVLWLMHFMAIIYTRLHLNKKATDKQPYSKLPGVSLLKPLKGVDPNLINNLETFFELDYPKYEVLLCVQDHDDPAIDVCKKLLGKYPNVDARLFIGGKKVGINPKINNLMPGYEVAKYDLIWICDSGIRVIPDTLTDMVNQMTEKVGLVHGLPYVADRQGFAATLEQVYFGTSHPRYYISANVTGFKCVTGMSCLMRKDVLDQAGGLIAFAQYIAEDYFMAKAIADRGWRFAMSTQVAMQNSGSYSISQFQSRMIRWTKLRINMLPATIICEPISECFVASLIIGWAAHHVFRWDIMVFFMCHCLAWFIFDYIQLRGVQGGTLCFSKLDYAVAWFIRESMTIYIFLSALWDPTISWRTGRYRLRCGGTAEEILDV
Experimental: Ibiglustat, known as a GCS inhibitor, was used as a control.
After the cells attached to the culture dish were washed with phosphate buffered saline (PBS), the cells were scraped off with a cell scraper and then centrifuged (4000 rpm, 3 min, 4° C.) to collect the cells in a 50 ml tube. The cell pellets were suspended in a lysis buffer (50 mM HEPES, pH 7.3, containing 1× the protease/phosphatase inhibitor cocktail), lysed by sonication, and then the lysate was centrifuged (13000 rpm, 10 min, 4° C.). The obtained supernatant was used for the quantitative analysis of proteins. The amount of proteins was measured using the BCA protein assay kit, using bovine serum albumin as a standard.
Enzymatic reactions were initiated by sequentially adding the following reaction materials to a 96 deep-well plate. Thereafter, the enzymatic reactions were performed at 37° C. for 90 minutes.
The enzymatic reactions were stopped by adding 100 μl of chloroform/methanol (2:1, v/v). After vortexing for 15 seconds, each mixture was centrifuged (4000 rpm, 10 min, 18° C.). The lower layer (50 μl) was transferred to a new 96 deep-well plate and dried with a reduced concentrator.
Data analysis was performed by the following equations. % Area(Sample)=Area(GlcCer)/[Area(Cer)+Area(GlcCer)]×100 % GCS activity=[Area(Sample)−Area(ibiglustat)]/[Area(DMSO)−Area(ibiglustat)]×100

[2] = test system: GM1 production in Jurkat cells; assay: cells; assay type: cell-based

Compound	IC50 [1] [nM]	IC50 ([2]; Homo sapiens, Jurkat, 72 h) [nM]	IC50 ([2]; read-out: IC50) [nM]
O=C(NC1CCOc2cc(-c3cccc(F)c3)ccc21)O[C@@H]1CN2CCC1CC2 (stereo partly drawn) [Example 1, (S)-quinuclidin-3-yl (7-(3-fluorophenyl)chroman-4-yl)carbamate]	2.6	1.69	
O=C(NC1CCOc2cc(-c3cccc(Cl)c3)ccc21)O[C@@H]1CN2CCC1CC2 (stereo partly drawn) [Example 2, (S)-quinuclidin-3-yl (7-(3-chlorophenyl)chroman-4-yl)carbamate]	0.7	3.47	
O=C(NC1CCOc2cc(-c3cccc(C(F)(F)F)c3)ccc21)O[C@@H]1CN2CCC1CC2 (stereo partly drawn) [Example 3, (S)-quinuclidin-3-yl (7-(3-(trifluoromethyl)phenyl)chroman-4-yl)carbamate]	0.7	2.13	
O=C(NC1CCOc2cc(-c3cccc(OC(F)(F)F)c3)ccc21)O[C@@H]1CN2CCC1CC2 (stereo partly drawn) [Example 4, (S)-quinuclidin-3-yl (7-(3-(trifluoromethoxy)phenyl)chroman-4-yl)carbamate]	0.7	1.08	
COCOc1ccccc1-c1ccc2c(c1)OCCC2NC(=O)O[C@@H]1CN2CCC1CC2 (stereo partly drawn) [Example 5, (S)-quinuclidin-3-yl (7-(2-(methoxymethoxy)phenyl)chroman-4-yl)carbamate]	3.71	29.2	
COCOc1cccc(-c2ccc3c(c2)OCCC3NC(=O)O[C@@H]2CN3CCC2CC3)c1 (stereo partly drawn) [Example 6, (S)-quinuclidin-3-yl (7-(3-(methoxymethoxy)phenyl)chroman-4-yl)carbamate]	0.67	7.18	
COCCOc1ccccc1-c1ccc2c(c1)OCCC2NC(=O)O[C@@H]1CN2CCC1CC2 (stereo partly drawn) [Example 7, (S)-quinuclidin-3-yl (7-(2-(2-methoxyethoxy)phenyl)chroman-4-yl)carbamate]	3.28	34.1	
COCCOc1cccc(-c2ccc3c(c2)OCCC3NC(=O)O[C@@H]2CN3CCC2CC3)c1 (stereo partly drawn) [Example 8, (S)-quinuclidin-3-yl (7-(3-(2-methoxyethoxy)phenyl)chroman-4-yl)carbamate]	0.48	3.59	
O=C(NC1CCOc2cc(-c3ccccc3F)ccc21)O[C@@H]1CN2CCC1CC2 (stereo partly drawn) [Example 9, (S)-quinuclidin-3-yl (7-(2-fluorophenyl)chroman-4-yl)carbamate]	1.81	2.83	
O=C(NC1CCOc2cc(-c3ccccc3Cl)ccc21)O[C@@H]1CN2CCC1CC2 (stereo partly drawn) [Example 10, (S)-quinuclidin-3-yl (7-(2-chlorophenyl)chroman-4-yl)carbamate]	2.02	7.23	
O=C(NC1CCOc2cc(-c3ccccc3C(F)(F)F)ccc21)O[C@@H]1CN2CCC1CC2 (stereo partly drawn) [Example 11, (S)-quinuclidin-3-yl (7-(2-(trifluoromethyl)phenyl)chroman-4-yl)carbamate]	10.4	18.2	
O=C(NC1CCOc2cc(-c3ccccc3OC(F)(F)F)ccc21)O[C@@H]1CN2CCC1CC2 (stereo partly drawn) [Example 12, (S)-quinuclidin-3-yl (7-(2-(trifluoromethoxy)phenyl)chroman-4-yl)carbamate]	4.28	3.28	
O=C(NC1CCOc2cc(-c3ccc(F)cc3)ccc21)O[C@@H]1CN2CCC1CC2 (stereo partly drawn) [Example 13, (S)-quinuclidin-3-yl (7-(4-fluorophenyl)chroman-4-yl)carbamate]	8.54	42.8	
O=C(NC1CCOc2cc(-c3ccc(Cl)cc3)ccc21)O[C@@H]1CN2CCC1CC2 (stereo partly drawn) [Example 14, (S)-quinuclidin-3-yl (7-(4-chlorophenyl)chroman-4-yl)carbamate]	9.67	42.1	
O=C(NC1CCOc2cc(-c3ccc(C(F)(F)F)cc3)ccc21)O[C@@H]1CN2CCC1CC2 (stereo partly drawn) [Example 15, (S)-quinuclidin-3-yl (7-(4-(trifluoromethyl)phenyl)chroman-4-yl)carbamate]	11.7	38.9	
O=C(NC1CCOc2cc(-c3ccc(OC(F)(F)F)cc3)ccc21)O[C@@H]1CN2CCC1CC2 (stereo partly drawn) [Example 16, (S)-quinuclidin-3-yl (7-(4-(trifluoromethoxy)phenyl)chroman-4-yl)carbamate]	9.4	27.8	
COc1ccccc1-c1ccc2c(c1)OCCC2NC(=O)O[C@@H]1CN2CCC1CC2 (stereo partly drawn) [Example 17, (S)-quinuclidin-3-yl (7-(2-methoxyphenyl)chroman-4-yl)carbamate]	1.41	5.5	

Compound	IC50 [1] [nM]	IC50 ([2]; Homo sapiens, Jurkat, 72 h) [nM]	IC50 ([2]; read-out: IC50) [nM]
COc1cccc(-c2ccc3c(c2)OCCC3NC(=O)O[C@@H]2CN3CCC2CC3)c1 (stereo partly drawn) [Example 18, (S)-quinuclidin-3-yl (7-(3-methoxyphenyl)chroman-4-yl)carbamate]	1.54	6.98	
COc1ccc(-c2ccc3c(c2)OCCC3NC(=O)O[C@@H]2CN3CCC2CC3)cc1 (stereo partly drawn) [Example 19, (S)-quinuclidin-3-yl (7-(4-methoxyphenyl)chroman-4-yl)carbamate]	8.32	30.5	
CCOc1ccccc1-c1ccc2c(c1)OCCC2NC(=O)O[C@@H]1CN2CCC1CC2 (stereo partly drawn) [Example 20, (S)-quinuclidin-3-yl (7-(2-ethoxyphenyl)chroman-4-yl)carbamate]	2.86	19.1	
CCOc1cccc(-c2ccc3c(c2)OCCC3NC(=O)O[C@@H]2CN3CCC2CC3)c1 (stereo partly drawn) [Example 21, (S)-quinuclidin-3-yl (7-(3-ethoxyphenyl)chroman-4-yl)carbamate]	0.67	4.56	
CCOc1ccc(-c2ccc3c(c2)OCCC3NC(=O)O[C@@H]2CN3CCC2CC3)cc1 (stereo partly drawn) [Example 22, (S)-quinuclidin-3-yl (7-(4-ethoxyphenyl)chroman-4-yl)carbamate]	4	34.2	
CC(C)c1cccc(-c2ccc3c(c2)OCCC3NC(=O)O[C@@H]2CN3CCC2CC3)c1 (stereo partly drawn) [Example 23, (S)-quinuclidin-3-yl (7-(3-isopropylphenyl)chroman-4-yl)carbamate]	0.48	0.57	
CC(C)c1ccc(-c2ccc3c(c2)OCCC3NC(=O)O[C@@H]2CN3CCC2CC3)cc1 (stereo partly drawn) [Example 24, (S)-quinuclidin-3-yl (7-(4-isopropylphenyl)chroman-4-yl)carbamate]	4.88	10.7	
CC(C)(C)c1cccc(-c2ccc3c(c2)OCCC3NC(=O)O[C@@H]2CN3CCC2CC3)c1 (stereo partly drawn) [Example 25, (S)-quinuclidin-3-yl (7-(3-(tert-butyl)phenyl)chroman-4-yl)carbamate]	0.65	1.07	
CC(C)(C)c1ccc(-c2ccc3c(c2)OCCC3NC(=O)O[C@@H]2CN3CCC2CC3)cc1 (stereo partly drawn) [Example 26, (S)-quinuclidin-3-yl (7-(4-(tert-butyl)phenyl)chroman-4-yl)carbamate]	10.2	23.3	
O=C(NC1CCOc2cc(-c3cc(Cl)ccc3Cl)ccc21)O[C@@H]1CN2CCC1CC2 (stereo partly drawn) [Example 27, (S)-quinuclidin-3-yl (7-(2,5-dichlorophenyl)chroman-4-yl)carbamate]	0.75	0.54	
O=C(NC1CCOc2cc(-c3ccc(Cl)c(Cl)c3)ccc21)O[C@@H]1CN2CCC1CC2 (stereo partly drawn) [Example 28, (S)-quinuclidin-3-yl (7-(3,4-dichlorophenyl)chroman-4-yl)carbamate]	5.19	24.1	
O=C(NC1CCOc2cc(-c3cc(Cl)cc(Cl)c3)ccc21)O[C@@H]1CN2CCC1CC2 (stereo partly drawn) [Example 29, (S)-quinuclidin-3-yl (7-(3,5-dichlorophenyl)chroman-4-yl)carbamate]	2.28	12.4	
O=C(NC1CCOc2cc(-c3ccc(F)c(F)c3F)ccc21)O[C@@H]1CN2CCC1CC2 (stereo partly drawn) [Example 30, (S)-quinuclidin-3-yl (7-(2,3,4-trifluorophenyl)chroman-4-yl)carbamate]	3.92	48.2	
O=C(NC1CCOc2cc(-c3cc(F)c(F)cc3F)ccc21)O[C@@H]1CN2CCC1CC2 (stereo partly drawn) [Example 31, (S)-quinuclidin-3-yl (7-(2,4,5-trifluorophenyl)chroman-4-yl)carbamate]	3.26	27.6	
CC1(C)COc2cc(-c3ccc(N4CCOCC4)c(F)c3)ccc2C1NC(=O)O[C@@H]1CN2CCC1CC2 (stereo partly drawn) [Example 204, (S)-quinuclidin-3-yl (7-(3-fluoro-4-morpholinophenyl)-3,3-dimethylchroman-4-yl)carbamate]			0.31
CC1(C)CC(NC(=O)O[C@@H]2CN3CCC2CC3)c2cc(-c3cccc(F)c3)ccc2O1 (stereo partly drawn) [Example 294, (S)-quinuclidin-3-yl (6-(3-fluorophenyl)-2,2-dimethylchroman-4-yl)carbamate]	145		
